According to ChEMBL document CHEMBL6109163, “6-Aryl Isoindolin-1-ones: Novel mGluR2 Negative Allosteric Modulators” (ACS Med Chem Lett, 2025):

How the values were obtained:
[1] = molecular target: Metabotropic glutamate receptor 3 (Rattus norvegicus, UniProt P31422); experiment: Negative allosteric modulator activity at rat mGluR3 receptor by TI flux assay-based fluorescence analysis
[2] = molecular target: Metabotropic glutamate receptor 2 (Rattus norvegicus, UniProt P31421); experiment: Negative allosteric modulator activity at glutamate-stimulated rat mGluR2 receptor expressed in HEK293 cells assessed as inhibition of thallium flux preincubated for 2 mins 20 secs followed by glutamate addition and measured for 2.5 mins by fluorescence based analysis; type: cell-based
Sequence of Metabotropic glutamate receptor 2 (P31421 whole entry): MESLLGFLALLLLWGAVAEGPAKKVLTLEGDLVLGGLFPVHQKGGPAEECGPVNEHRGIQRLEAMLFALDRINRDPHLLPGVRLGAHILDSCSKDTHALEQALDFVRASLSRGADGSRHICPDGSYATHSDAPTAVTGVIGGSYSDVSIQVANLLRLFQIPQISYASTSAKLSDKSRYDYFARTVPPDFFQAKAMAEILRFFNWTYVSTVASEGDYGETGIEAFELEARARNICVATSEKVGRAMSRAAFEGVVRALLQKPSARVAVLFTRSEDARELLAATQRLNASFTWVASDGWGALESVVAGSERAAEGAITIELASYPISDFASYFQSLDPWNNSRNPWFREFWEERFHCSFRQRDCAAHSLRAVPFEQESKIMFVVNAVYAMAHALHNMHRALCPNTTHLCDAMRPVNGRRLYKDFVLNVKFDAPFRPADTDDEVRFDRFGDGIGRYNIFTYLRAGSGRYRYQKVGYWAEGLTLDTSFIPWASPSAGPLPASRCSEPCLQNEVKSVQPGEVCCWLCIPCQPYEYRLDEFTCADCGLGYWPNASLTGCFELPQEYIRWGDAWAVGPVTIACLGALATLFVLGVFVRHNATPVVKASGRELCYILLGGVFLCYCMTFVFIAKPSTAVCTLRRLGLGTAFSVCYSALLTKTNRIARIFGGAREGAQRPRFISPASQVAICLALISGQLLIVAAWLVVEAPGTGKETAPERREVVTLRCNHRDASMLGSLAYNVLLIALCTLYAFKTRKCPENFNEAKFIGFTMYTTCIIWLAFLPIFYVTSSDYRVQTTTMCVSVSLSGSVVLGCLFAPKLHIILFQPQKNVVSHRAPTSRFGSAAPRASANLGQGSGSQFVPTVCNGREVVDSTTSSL

Sequence of Metabotropic glutamate receptor 3 (P31422 whole entry): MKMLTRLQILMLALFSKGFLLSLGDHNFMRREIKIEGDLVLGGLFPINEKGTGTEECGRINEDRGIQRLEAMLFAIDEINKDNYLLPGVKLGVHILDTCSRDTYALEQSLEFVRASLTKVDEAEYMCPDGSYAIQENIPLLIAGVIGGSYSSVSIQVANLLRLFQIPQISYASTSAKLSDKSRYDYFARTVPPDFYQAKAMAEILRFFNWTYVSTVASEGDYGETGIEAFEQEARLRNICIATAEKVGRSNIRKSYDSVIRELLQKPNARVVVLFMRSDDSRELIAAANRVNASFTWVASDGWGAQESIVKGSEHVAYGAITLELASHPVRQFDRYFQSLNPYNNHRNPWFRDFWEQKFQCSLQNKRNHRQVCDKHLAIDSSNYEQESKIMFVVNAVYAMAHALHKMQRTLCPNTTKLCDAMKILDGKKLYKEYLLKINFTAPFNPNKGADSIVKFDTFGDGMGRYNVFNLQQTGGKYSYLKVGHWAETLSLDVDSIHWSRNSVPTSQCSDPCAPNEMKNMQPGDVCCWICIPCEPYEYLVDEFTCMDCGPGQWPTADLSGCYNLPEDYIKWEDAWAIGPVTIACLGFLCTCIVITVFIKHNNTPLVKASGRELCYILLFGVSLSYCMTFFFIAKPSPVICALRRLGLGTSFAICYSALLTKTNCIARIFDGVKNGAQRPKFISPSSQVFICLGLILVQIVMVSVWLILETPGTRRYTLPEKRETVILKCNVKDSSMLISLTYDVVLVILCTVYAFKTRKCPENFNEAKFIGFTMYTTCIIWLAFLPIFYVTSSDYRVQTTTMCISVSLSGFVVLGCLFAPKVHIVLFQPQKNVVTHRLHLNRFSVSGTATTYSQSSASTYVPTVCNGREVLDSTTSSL

IC50 [1] [µM] | IC50 [2] [µM] | SMILES
> 10 |  | N#Cc1cccc(-c2cc3c(cc2-c2ccc(F)cc2F)C(=O)NC3)c1F
> 10 | 0.659 | Cc1ccc(-c2cc3c(cc2-c2ccc(F)cc2)C(=O)NC3)cn1
> 10 | 0.693 | O=C1NCc2cc(-c3cccnc3C3CC3)c(-c3ccc(F)cc3F)cc21
> 10 |  | O=C1NCc2cc(-c3cnc4[nH]ccc4c3)c(-c3ccc(F)cc3F)cc21
> 10 |  | O=C1NCc2cc(C3CCOCC3)c(-c3ccc(F)cc3)cc21
> 10 |  | Cc1ccc(-c2cc3c(cc2-c2ccc(F)cc2)C(=O)NC3)nc1
